Test results as given in patent publication US7056908B2, “Pharmaceutical compositions and methods for preventing skin tumor formation and causing regression of existing tumors” (priority 1991, dated 2006).

Key:
primary keratinocytes [1] = assay: Cornified envelope formation in primary keratinocytes; type: cell-based, mouse; details: additional experiment, 60 nM bryostatin
Method: Cornified Envelope Quantitation. Keratinocytes were analyzed for cornified envelope formation as described (Nagae, S. et al, “Effect of retinoic acid on cornified envelope formation: difference between spontaneous envelope formation in vivo or in vitro and expression of envelope competence,” J. Invest., Dermatol., 89: 51–58, 1987), with minor modifications. Floating cells were harvested by collecting culture medium from each 60 mm dish and combining with two washes using phosphate-buffered saline without Ca^2+ and Ms^+2 (PBS). Cells were pelleted for 5 minutes at 1000 rpm in a benchtop clinical centrifuge and resuspended in 100 μl of lysis buffer (2% sodium dodecyl sulfate (SDS) and 20 mM dithiothreitol in PBS). Attached cells were harvested in 250 μl lysis buffer, combined with the preparation of floating cells, and incubated at 95° for 10 minutes. The non-solubilized, intact cornified envelopes, characteristic of terminally differentiated keratinocytes, were counted using a hemocytometer (Nagae, S. et al, “Effect of retinoic acid on cornified envelope formation: difference between spontaneous envelope formation in vivo or in vitro and expression of envelope competence,” J. Invest. Dermatol., 89: 51–58, 1987).
Floating and attached cell populations were harvested and cornified envelopes isolated. Data are mean values for three separate dishes±standard error of the mean from one experiment.
7 day old primary keratinocytes were cultured with or without 60 nM bryostatin for 15 hours. […] Each data bar is the average value from duplicate dishes with the range indicated by error bars.

primary keratinocytes [2] = type: cell-based, mouse; details: 60 nM bryostatin for 1 day
Method: EGF binding was assessed in 6-well tissue culture dishes plated at a cell density of 2.5×10^6 cells/well (Strickland, J. E. et al, “Interaction of epidermal growth factor with basal and differentiating epidermal cells of mice resistant and sensitive to carcinogenesis,” Carcinogenesis, 5: 735–740, 1984). […] A second set of cultures received, in addition, 1 μg/ml unlabelled EGF to assess non-specific binding of radioactive ligand. Following the incubation period, cultures were washed 4 times with ice-cold binding buffer, harvested in 1.5 ml lysis buffer (0.1 M tris (pH 7.4), 0.5% SDS, 1 mM EDTA), and radioactivity determined by scintillation counting.
Exposure of a variety of cultured cell types to TPA results in inhibition of EGF binding which is attributed to PKC-mediated phosphorylation of the EGF receptor (Diamond, L., “Tumor promoters and cell transformation,” In: D. Grunberger and S. P. Goff. (eds.), Mechanisms of Cellular Transformation by Carcinogenic Agents, pp. 73–133, New York: Pergamon Press. 1987).
Each point is the mean of trilpicate dishes±standard error of the mean.

Question: `CCC/C=C/C=C/C(=O)O[C@H]1/C(=C/C(=O)OC)C[C@H]2C[C@H]([C@@H](C)O)OC(=O)C[C@H](O)C[C@@H]3C[C@H](OC(C)=O)C(C)(C)[C@](O)(C[C@@H]4C/C(=C/C(=O)OC)C[C@H](/C=C/C(C)(C)[C@]1(O)O2)O4)O3` [bryostatin] was tested. Which “reduction of cornified envelope formation by bryostatin pre-treatment” value (primary keratinocytes [1]; TPA-treated cultures) did it give?
Answer: The value was 70%.

Question: And the “reduction of cornified envelope formation by bryostatin pre-treatment” value (primary keratinocytes [1]; staurosporine-treated cultures)?
Answer: The value was 70%.

Question: What about the “block by bryostatin pre-treatment of staurosporine-mediated inhibition of 125I-EGF binding” value (primary keratinocytes [2]; average over a 4 hour period) of the same compound?
Answer: Its value is 50%.

Question: What about the “block by bryostatin pre-treatment of TPA-mediated inhibition of 125I-EGF binding” value (primary keratinocytes [2]; over a 4 hour period) of the same compound?
Answer: Its value is “completely blocked”.
